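1) Cells in 96-well plates. 2) Compound, 48 h, 5 concentrations. 3) Linear interpolation between surrounding doses. 4) Unreached endpoint = highest concentration. GI50 is the concentration that inhibits growth by half. TGI denotes the concentration required for complete inhibition of growth.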
Legend:
Test in all cases: growth of human tumour cells (NCI), 48 h
DU-145 prostate = system: DU-145 prostate
KM12 colon = system: KM12 colon
NCI-H226 lung = system: NCI-H226 lung
SF-295 CNS = system: SF-295 CNS
K-562 leukemia = system: K-562 leukemia
HCC-2998 colon = system: HCC-2998 colon
SK-MEL-2 melanoma = system: SK-MEL-2 melanoma
HOP-62 NSCLC = system: HOP-62 NSCLC
PC-3 prostate = system: PC-3 prostate
MOLT-4 leukemia = system: MOLT-4 leukemia
SK-MEL-28 melanoma = system: SK-MEL-28 melanoma
MDA-MB-435 = system: MDA-MB-435
BT-549 breast = system: BT-549 breast
SK-OV-3 ovarian = system: SK-OV-3 ovarian
SNB-75 CNS = system: SNB-75 CNS
OVCAR-8 ovarian = system: OVCAR-8 ovarian
A549 NSCLC = system: A549 NSCLC
UO-31 renal = system: UO-31 renal
NCI/ADR-RES ovarian = system: NCI/ADR-RES ovarian
HS 578T breast = system: HS 578T breast
IGROV1 ovarian = system: IGROV1 ovarian
EKVX NSCLC = system: EKVX NSCLC
NCI-H23 lung = system: NCI-H23 lung
CAKI-1 renal = system: CAKI-1 renal
A498 renal = system: A498 renal
CCRF-CEM leukemia = system: CCRF-CEM leukemia
HOP-92 NSCLC = system: HOP-92 NSCLC
HT29 colon = system: HT29 colon
OVCAR-4 ovarian = system: OVCAR-4 ovarian
SF-268 CNS = system: SF-268 CNS
MDA-MB-231 breast = system: MDA-MB-231 breast
NCI-H460 lung = system: NCI-H460 lung
SR leukemia = system: SR leukemia
UACC-257 melanoma = system: UACC-257 melanoma
TK-10 renal = system: TK-10 renal
SW-620 colon = system: SW-620 colon
RXF 393 renal = system: RXF 393 renal
786-0 renal = system: 786-0 renal
U251 CNS = system: U251 CNS
OVCAR-5 ovarian = system: OVCAR-5 ovarian
SN12C renal = system: SN12C renal
SK-MEL-5 melanoma = system: SK-MEL-5 melanoma
ACHN renal = system: ACHN renal
SNB-19 CNS = system: SNB-19 CNS
UACC-62 melanoma = system: UACC-62 melanoma
OVCAR-3 ovarian = system: OVCAR-3 ovarian
HCT-15 colon = system: HCT-15 colon
HL-60(TB) leukemia = system: HL-60(TB) leukemia
RPMI-8226 leukemia = system: RPMI-8226 leukemia
MALME-3M melanoma = system: MALME-3M melanoma
SF-539 CNS = system: SF-539 CNS

**Q.** `CC(=O)Nc1ccc(NC(=O)Nc2cccc(-c3nc(-c4ccc(NC(=O)c5cccnc5)cc4Cl)no3)c2)cc1C(F)(F)F` was tested. Which GI50 (DU-145 prostate) did it give?
**A.** 519 nM

**Q.** What about the TGI (DU-145 prostate) of the same compound?
**A.** 4320 nM

**Q.** What about the GI50 (KM12 colon) of the same compound?
**A.** 438 nM

**Q.** And the TGI (KM12 colon)?
**A.** 1790 nM

**Q.** What about the GI50 (NCI-H226 lung) of the same compound?
**A.** 729 nM

**Q.** What about the TGI (NCI-H226 lung) of the same compound?
**A.** 2240 nM

**Q.** And the GI50 (SF-295 CNS)?
**A.** 454 nM

**Q.** And the TGI (SF-295 CNS)?
**A.** 1370 nM

**Q.** What about the GI50 (K-562 leukemia) of the same compound?
**A.** 320 nM

**Q.** What about the TGI (K-562 leukemia) of the same compound?
**A.** 1760 nM

**Q.** And the GI50 (HCC-2998 colon)?
**A.** 998 nM

**Q.** What about the TGI (HCC-2998 colon) of the same compound?
**A.** 2560 nM

**Q.** And the GI50 (SK-MEL-2 melanoma)?
**A.** 1270 nM

**Q.** What about the TGI (SK-MEL-2 melanoma) of the same compound?
**A.** 3290 nM

**Q.** What about the GI50 (HOP-62 NSCLC) of the same compound?
**A.** 739 nM

**Q.** What about the TGI (HOP-62 NSCLC) of the same compound?
**A.** 2700 nM

**Q.** And the GI50 (PC-3 prostate)?
**A.** 477 nM

**Q.** And the TGI (PC-3 prostate)?
**A.** 2180 nM

**Q.** What about the GI50 (MOLT-4 leukemia) of the same compound?
**A.** 620 nM

**Q.** And the TGI (MOLT-4 leukemia)?
**A.** 3000 nM

**Q.** And the GI50 (SK-MEL-28 melanoma)?
**A.** 890 nM

**Q.** And the TGI (SK-MEL-28 melanoma)?
**A.** 2200 nM

**Q.** And the GI50 (MDA-MB-435)?
**A.** 174 nM

**Q.** What about the TGI (MDA-MB-435) of the same compound?
**A.** 406 nM

**Q.** And the GI50 (BT-549 breast)?
**A.** 1120 nM

**Q.** What about the TGI (BT-549 breast) of the same compound?
**A.** 3040 nM

**Q.** And the GI50 (SK-OV-3 ovarian)?
**A.** 1290 nM

**Q.** And the TGI (SK-OV-3 ovarian)?
**A.** 3030 nM

**Q.** And the GI50 (SNB-75 CNS)?
**A.** 217 nM

**Q.** What about the TGI (SNB-75 CNS) of the same compound?
**A.** 814 nM

**Q.** And the GI50 (OVCAR-8 ovarian)?
**A.** 712 nM

**Q.** And the TGI (OVCAR-8 ovarian)?
**A.** 3250 nM

**Q.** And the GI50 (A549 NSCLC)?
**A.** 1070 nM

**Q.** And the TGI (A549 NSCLC)?
**A.** 4430 nM

**Q.** And the GI50 (UO-31 renal)?
**A.** 4300 nM

**Q.** And the TGI (UO-31 renal)?
**A.** > 35700 nM

**Q.** What about the GI50 (NCI/ADR-RES ovarian) of the same compound?
**A.** > 100000 nM

**Q.** What about the TGI (NCI/ADR-RES ovarian) of the same compound?
**A.** > 100000 nM

**Q.** What about the GI50 (HS 578T breast) of the same compound?
**A.** 503 nM

**Q.** What about the TGI (HS 578T breast) of the same compound?
**A.** 2990 nM

**Q.** And the GI50 (IGROV1 ovarian)?
**A.** 739 nM

**Q.** What about the TGI (IGROV1 ovarian) of the same compound?
**A.** 2340 nM

**Q.** And the GI50 (EKVX NSCLC)?
**A.** 1400 nM

**Q.** And the TGI (EKVX NSCLC)?
**A.** 9160 nM

**Q.** What about the GI50 (NCI-H23 lung) of the same compound?
**A.** 601 nM

**Q.** What about the TGI (NCI-H23 lung) of the same compound?
**A.** 2190 nM

**Q.** And the GI50 (CAKI-1 renal)?
**A.** 570 nM

**Q.** What about the TGI (CAKI-1 renal) of the same compound?
**A.** 1970 nM

**Q.** What about the GI50 (A498 renal) of the same compound?
**A.** 435 nM

**Q.** And the TGI (A498 renal)?
**A.** 1510 nM

**Q.** What about the GI50 (CCRF-CEM leukemia) of the same compound?
**A.** 395 nM

**Q.** And the TGI (CCRF-CEM leukemia)?
**A.** > 100000 nM

**Q.** What about the GI50 (HOP-92 NSCLC) of the same compound?
**A.** 1280 nM

**Q.** And the TGI (HOP-92 NSCLC)?
**A.** 3010 nM

**Q.** What about the GI50 (HT29 colon) of the same compound?
**A.** 380 nM

**Q.** And the TGI (HT29 colon)?
**A.** 1690 nM

**Q.** What about the GI50 (OVCAR-4 ovarian) of the same compound?
**A.** 1070 nM

**Q.** What about the TGI (OVCAR-4 ovarian) of the same compound?
**A.** 2620 nM

**Q.** And the GI50 (SF-268 CNS)?
**A.** 1100 nM

**Q.** What about the TGI (SF-268 CNS) of the same compound?
**A.** 3380 nM

**Q.** And the GI50 (MDA-MB-231 breast)?
**A.** 658 nM

**Q.** And the TGI (MDA-MB-231 breast)?
**A.** 2330 nM

**Q.** And the GI50 (NCI-H460 lung)?
**A.** 411 nM

**Q.** And the TGI (NCI-H460 lung)?
**A.** 1480 nM

**Q.** What about the GI50 (SR leukemia) of the same compound?
**A.** 296 nM

**Q.** And the TGI (SR leukemia)?
**A.** 2350 nM

**Q.** And the GI50 (UACC-257 melanoma)?
**A.** 1130 nM

**Q.** And the TGI (UACC-257 melanoma)?
**A.** 2930 nM

**Q.** What about the GI50 (TK-10 renal) of the same compound?
**A.** 1990 nM

**Q.** What about the TGI (TK-10 renal) of the same compound?
**A.** 4670 nM

**Q.** What about the GI50 (SW-620 colon) of the same compound?
**A.** 430 nM

**Q.** What about the TGI (SW-620 colon) of the same compound?
**A.** 1860 nM

**Q.** What about the GI50 (RXF 393 renal) of the same compound?
**A.** 359 nM

**Q.** And the TGI (RXF 393 renal)?
**A.** 1130 nM

**Q.** And the GI50 (786-0 renal)?
**A.** 1120 nM

**Q.** What about the TGI (786-0 renal) of the same compound?
**A.** 2720 nM

**Q.** What about the GI50 (U251 CNS) of the same compound?
**A.** 564 nM

**Q.** And the TGI (U251 CNS)?
**A.** 2260 nM

**Q.** And the GI50 (OVCAR-5 ovarian)?
**A.** 987 nM

**Q.** And the TGI (OVCAR-5 ovarian)?
**A.** 2640 nM

**Q.** What about the GI50 (SN12C renal) of the same compound?
**A.** 685 nM

**Q.** And the TGI (SN12C renal)?
**A.** 2120 nM

**Q.** What about the GI50 (SK-MEL-5 melanoma) of the same compound?
**A.** 612 nM

**Q.** What about the TGI (SK-MEL-5 melanoma) of the same compound?
**A.** 1930 nM

**Q.** What about the GI50 (ACHN renal) of the same compound?
**A.** 6040 nM

**Q.** And the TGI (ACHN renal)?
**A.** > 100000 nM

**Q.** What about the GI50 (SNB-19 CNS) of the same compound?
**A.** 477 nM

**Q.** What about the TGI (SNB-19 CNS) of the same compound?
**A.** 2150 nM

**Q.** What about the GI50 (UACC-62 melanoma) of the same compound?
**A.** 412 nM

**Q.** And the TGI (UACC-62 melanoma)?
**A.** 1630 nM

**Q.** And the GI50 (OVCAR-3 ovarian)?
**A.** 382 nM

**Q.** And the TGI (OVCAR-3 ovarian)?
**A.** 1420 nM

**Q.** And the GI50 (HCT-15 colon)?
**A.** 2080 nM

**Q.** What about the TGI (HCT-15 colon) of the same compound?
**A.** > 100000 nM

**Q.** What about the GI50 (HL-60(TB) leukemia) of the same compound?
**A.** 307 nM

**Q.** And the TGI (HL-60(TB) leukemia)?
**A.** 1130 nM

**Q.** What about the GI50 (RPMI-8226 leukemia) of the same compound?
**A.** 538 nM

**Q.** And the TGI (RPMI-8226 leukemia)?
**A.** 2900 nM

**Q.** What about the GI50 (MALME-3M melanoma) of the same compound?
**A.** 479 nM

**Q.** What about the TGI (MALME-3M melanoma) of the same compound?
**A.** 1740 nM

**Q.** What about the GI50 (SF-539 CNS) of the same compound?
**A.** 341 nM

**Q.** What about the TGI (SF-539 CNS) of the same compound?
**A.** 1250 nM

Source: PubChem BioAssay (NCI)
